Test results as given in patent US9662328B2, “Targeting human thymidylate kinase induces DNA repair toxicity in malignant tumor cells” (NATIONAL YANG-MING UNIVERSITY, priority 2010, dated 2017).

How the values were obtained:
hTMPK [1] = target: T1, hTMPK (Homo sapiens, UniProt P23919); experiment: In vitro inhibitory activity against human TMPK at 2 μM; type: biochemical; conditions: test compounds at 2 μM concentration
T1 sequence (P23919 1-212): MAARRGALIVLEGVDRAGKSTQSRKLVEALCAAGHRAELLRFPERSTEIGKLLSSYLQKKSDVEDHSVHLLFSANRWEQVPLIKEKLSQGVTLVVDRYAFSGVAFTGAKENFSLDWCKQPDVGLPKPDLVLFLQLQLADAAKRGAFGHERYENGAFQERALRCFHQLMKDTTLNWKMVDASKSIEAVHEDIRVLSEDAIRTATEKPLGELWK
Experimental: (§1) The TMPK reaction was started by adding purified hTMPK in 50 μl of TMPK assay buffer (100 mM Tris-HCl, pH 7.5, 100 mM KCl, 10 mM MgCl2, 50 μM ATP and 100 μM dTMP) in 96 wells plate at 25° C. for 10 min and terminated by adding 200 μl of DTNB (100 μM), followed by transferring 10 μl of reaction solution to a white 96-wellplate containing 90 μl of luciferase assay buffer (50 mM Glycine, 0.5 mM EDTA and 5 mM EDTA, pH 7.0, 0.1 μg of luciferase, 50 μM luciferin and 0.1% BSA). The luminescence was measured with a luminescence counter (Packard).
(§2) All reactions were performed in 96-well plates in an assay volume of 100 μl. The activity of hTMPK was measured at 25° C. using a modified NADH coupled colorimetric assay as described (Agarwal et al., 1978; Miyata et al., 2003; Ostermann et al., 2003), in which purified hTMPK was added to the buffer containing 100 mM Tris-HCl, pH 7.5, 100 mM KCl, 10 mM MgCl2, 0.5 mM phosphoenol pyruvate, 0.25 mM NADH, 5 units of lactate dehydrogenase, 4 units of pyruvate kinase, 1 mM ATP, and 200 μM dTMP. The change of NADH was measured by reading the absorbance at 340 nm. One unit of TMPK activity is defined as the conversion of […] of TMP to TDP per minute.
The in vitro inhibitory activities of test compounds (at 2 μM concentration) against human TMPK are shown in Table 3 and compared with that of YMU1 and YMU2.

hTMPK [2] = target: T1, hTMPK; experiment: IC50 determination by enzymatic assay; type: biochemical
Experimental: as §1, §2
In one embodiment, the IC50 values were determined by enzymatic assay.

SMILES	inhibition at 2 µM (hTMPK [1]) [%]	IC50 (hTMPK [2]) [nM]
Cc1cc(C)c2c(=O)n(CC(=O)N3CCNCC3)sc2n1 [I-c-2, 4,6-Dimethyl-2-(2-oxo-2-(piperazin-1-yl)ethyl)isothiazolo[5,4-b]pyridin-3(2H)-one]	46 ± 2	
O=C(NCC(=O)N1CCN(C(=O)Cn2sc3ncccc3c2=O)CC1)Nc1ccccc1 [I-b-1, 1-(2-Oxo-2-(4-(2-(3-oxoisothiazolo[5,4-b]pyridin-2(3H)-yl)acetyl)piperazin-1-yl)ethyl)-3-phenylurea]	54 ± 7	1810 ± 280
O=C(Cn1sc2cc(Br)ccc2c1=O)N1CCNCC1 [I-f-2, 6-Bromo-2-(2-oxo-2-(piperazin-1-yl)ethyl)benzo[d]isothiazol-3(2H)-one]	38 ± 14	
CC(C)(C)OC(=O)N1CCN(C(=O)Cn2sc3cc(N=[N+]=[N-])ccc3c2=O)CC1 [I-d-14, tert-butyl 4-(2-(6-azido-3-oxobenzo[d]isothiazol-2(3H)-yl)acetyl)piperazine-1-carboxylate]	66 ± 5	
CC(C)(C)OC(=O)N1CCN(C(=O)Cn2sc3ncccc3c2=O)CC1 [I-a-1, Tert-butyl 4-(2-(3-oxoisothiazolo[5,4-b]pyridin-2(3H)-yl)acetyl)piperazine-1-carboxylate]	77 ± 4	
O=C(Cn1sc2cc(Br)ccc2c1=O)N1CCN(C(=O)Oc2ccc([N+](=O)[O-])cc2)CC1 [I-d-11, 4-Nitrophenyl 4-(2-(6-bromo-3-oxobenzo[d]isothiazol-2(3H)-yl)acetyl)piperazine-1-carboxylate]	86 ± 6	
CC(C)(C)OC(=O)N1CCN(C(=O)Cn2sc3cc(Cl)ccc3c2=O)CC1 [I-d-9, Tert-butyl 4-(2-(6-chloro-3-oxobenzo[d]isothiazol-2(3H)-yl)acetyl)piperazine-1-carboxylate]	55 ± 7	
CCCCNC(=O)NCC(=O)N1CCN(C(=O)Cn2sc3ccccc3c2=O)CC1 [I-e-7, Butyl-3-(2-oxo-2-(4-(2-(3-oxobenzo[d]isothiazol-2(3H)-yl)acetyl)piperazin-1-yl)ethyl)urea]	50 ± 5	
O=C(Cn1sc2ccccc2c1=O)N1CCNCC1 [I-f-1, 2-(2-Oxo-2-(piperazin-1-yl)ethyl)benzo[d]isothiazol-3(2H)-one]	34 ± 2	
Cc1cc(N)nc2sn(CC(=O)N3CCN(C(=O)Cn4sc5nc(N)cc(C)c5c4=O)CC3)c(=O)c12 [I-b-6, 1,4-Bis[(6-amino-4-methyl-3-oxoisothiazolo[5,4-b]pyridin-2-yl)acetyl]piperazine]	48 ± 5	1100
CCOC(=O)N1CCN(C(=O)Cn2sc3ccccc3c2=O)CC1 [I-d-1, Ethyl 4-(2-(3-oxobenzo[d]isothiazol-2(3H)-yl)acetyl)piperazine-1-carboxylate]	79 ± 5	
CC(C)(C)OC(=O)N1CCN(C(=O)Cn2sc3cc(Br)ccc3c2=O)CC1 [I-d-10, Tert-butyl 4-(2-(6-bromo-3-oxobenzo[d]isothiazol-2(3H)-yl)acetyl)piperazine-1-carboxylate]	56	
COc1ccc2c(=O)n(CC(=O)N3CCN(C(=O)OC(C)(C)C)CC3)sc2c1 [I-d-15, Tert-butyl 4-(2-(6-methoxy-3-oxobenzo[d]isothiazol-2(3H)-yl)acetyl)piperazine-1-carboxylate]	51 ± 9	
CC(C)(C)OC(=O)N1CCN(C(=O)Cn2sc3cc(N)ccc3c2=O)CC1 [I-d-13, Tert-butyl 4-(2-(6-amino-3-oxobenzo[d]isothiazol-2(3H)-yl)acetyl)piperazine-1-carboxylate]	39 ± 14	
Cc1cc(C)c2c(=O)n(CC(=O)N3CCN(C(=O)CNC(=O)Nc4ccccc4)CC3)sc2n1 [I-b-2, 1-(2-(4-(2-(4,6-Dimethyl-3-oxoisothiazolo[5,4-b]pyridin-2(3H)-yl)acetyl)piperazin-1-yl)-2-oxoethyl)-3-phenylurea]	32 ± 2	
O=C(Cn1sc2ncccc2c1=O)N1CCNCC1 [I-c-1, 2-(2-Oxo-2-(piperazin-1-yl)ethyl)isothiazolo[5,4-b]pyridin-3(2H)-one]	75 ± 11	
CC(C)(C)OC(=O)N1CCN(C(=O)Cn2sc3cc(C(F)(F)F)ccc3c2=O)CC1 [I-d-12, Tert-butyl4-(2-(3-oxo-6-(trifluoromethyl)benzo[d]isothiazol-2(3H)-yl)acetyl)-piperazine-1-carboxylate]	84 ± 1	

SMILES	inhibition at 2 µM (hTMPK [1]) [%]	IC50 (hTMPK [2]) [nM]
Cc1cc(C)c2c(=O)n(CC(=O)N3CCN(C(=O)Cn4sc5nc(C)cc(C)c5c4=O)CC3)sc2n1 [I-b-4, 1,4-Bis[(3-oxo-4,6-dimethylisothiazolo[5,4-b]pyridin-2-yl)acetyl]piperazine]	32 ± 2	800
CC(C)(C)OC(=O)N1CCN(C(=O)Cn2sc3cc(O[Si](C)(C)C(C)(C)C)ccc3c2=O)CC1 [I-d-17, Tert-butyl 4-(2-(6-((tert-butyldimethylsilyl)oxy)-3-oxobenzo[d]isothiazol-2(3H)-yl)-acetyl)piperazine-1-carboxylate]	80 ± 4	
Cc1cc(N)nc2sn(CC(=O)N3CCN(C(=O)OC(C)(C)C)CC3)c(=O)c12 [I-a-3, Tert-butyl 4-[(6-amino-4-methyl-3-oxoisothiazolo[5,4-b]pyridin-2(3H)-2-yl)acetyl]piperazine-1-carboxylate]	16 ± 5	
O=C(CN=C=S)N1CCN(C(=O)Cn2sc3ccccc3c2=O)CC1 [I-e-4, 2-(2-(4-(2-Isothiocyanatoacetyl)piperazin-1-yl)-2-oxoethyl)benzo[d]isothiazol-3(2H)-one]	63 ± 10	
Cc1cc(C)c2c(=O)n(CC(=O)N3CCN(C(=O)OC(C)(C)C)CC3)sc2n1 [YMU2, reference compound]	46 ± 2	
Cc1cc(C)c2c(=O)n(CC(=O)N3CCN(C(=O)CI)CC3)sc2n1 [I-b-3, 4,6-Dimethyl-2-[2-(4-(2-iodoacetyl)piperazin-1-yl)-2-oxoethyl]-isothiazolo[5,4-b]pyridin-3(2H)-one]	29 ± 3	
CC(C)(C)OC(=O)N1CCN(C(=O)Cn2sc3cc(O)ccc3c2=O)CC1 [I-d-16, Tert-butyl 4-(2-(6-hydroxy-3-oxobenzo[d]isothiazol-2(3H)-yl)acetyl)piperazine-1-carboxylate]	22 ± 12	
O=C(Cn1sc2ncccc2c1=O)N1CCN(C(=O)Oc2ccc([N+](=O)[O-])cc2)CC1 [I-a-2, 4-Nitrophenyl 4-(2-(3-oxoisothiazolo[5,4-b]pyridin-2(3H)-yl)acetyl)piperazine-1-carboxylate]	80 ± 10	
O=C(Cn1sc2ccccc2c1=O)N1CCN(C(=O)OCc2ccccc2)CC1 [I-d-3, Benzyl 4-(2-(3-oxobenzo[d]isothiazol-2(3H)-yl)acetyl)piperazine-1-carboxylate]	54 ± 1	
Cc1cc(N)nc2sn(CC(=O)N3CCN(C(=O)Oc4ccc([N+](=O)[O-])cc4)CC3)c(=O)c12 [I-a-4, 4-Nitrophenyl 4-[2-(6-amino-4-methyl-3-oxoisothiazolo[5,4-b]pyridin-2(3H)-yl)acetyl]piperazine-1-carboxylate]	10 ± 7	
CC(C)(C)OC(=O)N1CCN(C(=O)Cn2sc3cccc(F)c3c2=O)CC1 [I-d-5, Tert-butyl 4-(2-(4-fluoro-3-oxobenzo[d]isothiazol-2(3H)-yl)acetyl)piperazine-1-carboxylate]	56 ± 4	
O=C(CI)N1CCN(C(=O)Cn2sc3ccccc3c2=O)CC1 [I-e-1, 2-[2-(4-(2-Iodoacetyl)piperazin-1-yl)-2-oxoethyl]benzo[d]isothiazol-3(2H)-one]	31 ± 5	
CC(C)(C)OC(=O)N1CCN(C(=O)Cn2sc3ccccc3c2=O)CC1 [I-d-2, Tert-butyl 4-(2-(3-oxobenzo[d]isothiazol-2(3H)-yl)acetyl)piperazine-1-carboxylate]	100 ± 9	
CC(C)(C)OC(=O)N1CCN(C(=O)Cn2sc3c(F)cccc3c2=O)CC1 [I-d-8, Tert-butyl 4-(2-(7-fluoro-3-oxobenzo[d]isothiazol-2(3H)-yl)acetyl)piperazine-1-carboxylate]	25 ± 3	
CCCCCCCCc1cn(-c2ccc3c(=O)n(CC(=O)N4CCN(C(=O)OC(C)(C)C)CC4)sc3c2)nn1 [I-d-18, Tert-butyl 4-(2-(6-(4-octyl-1H-1,2,3-triazol-1-yl)-3-oxobenzo[d]isothiazol-2(3H)-yl)acetyl)piperazine-1-carboxylate]	78 ± 7	
COc1ccc(NC(=O)NCC(=O)N2CCN(C(=O)Cn3sc4ccccc4c3=O)CC2)cc1 [I-e-6, 1-(4-Methoxyphenyl)-3-(2-oxo-2-(4-(2-(3-oxobenzo[d]isothiazol-2(3H)-yl)acetyl)piperazin-1-yl)ethyl)urea]	55 ± 7	
Cc1cc(N)nc2sn(CC(=O)N3CCNCC3)c(=O)c12 [I-c-3, 6-Amino-4-methyl-2-[2-oxo-2-(piperazin-1-yl)ethyl]isothiazolo[5,4-b]pyridin-3(2H)-one]	6 ± 5	
